Among the data in US11399540B2, “Molecules having pesticidal utility, and intermediates, compositions, and processes, related thereto” (CORTEVA AGRISCIENCE LLC, priority 2017, dated 2022) are mortality values, retold here.

Structures are written as SMILES.

Assay [1] has as its system Beet Armyworm (Spodoptera exigua, LAPHEG). Briefly: Bioassay on Beet Armyworm (BAW), 128-well diet tray assay. The format is in vivo. The settings on record: 168 h, 50 μg/cm^2 of test molecule on artificial diet, second instar larvae, 25° C., five to seven days, average of eight wells, read-out: BAW % Control (or Mortality) rating. Here is the method: (§1) Certain molecules disclosed in this document were tested against BAW and CL using procedures described in the following examples. In the reporting of the results, the “BAW & CL Rating Table” was used (See Table Section).
Bioassays on BAW were conducted using a 128-well diet tray assay. One to five second instar BAW larvae were placed in each well (3 mL) of the diet tray that had been previously filled with 1 mL of artificial diet to which 50 μg/cm^2 of the test molecule (dissolved in 50 μL of 90:10 acetone-water mixture) had been applied (to each of eight wells) and then allowed to dry. Trays were covered with a clear self-adhesive cover, vented to allow gas exchange, and held at 25° C., 14:10 light-dark for five to seven days. Percent mortality was recorded for the larvae in each well; activity in the eight wells was then averaged. The results are indicated in the table entitled “Table ABC: Biological Results” (See Table Section).

Assay [2] concerns Cabbage Looper (Trichoplusia ni, TRIPNI). Briefly: Bioassay on Cabbage Looper (CL), 128-well diet tray assay. The assay is classed as in vivo. To be noted: 168 h, 50 μg/cm^2 of test molecule on artificial diet, second instar larvae, 25° C., five to seven days, average of eight wells, read-out: CL % Control (or Mortality) rating. Here is the method:
as §1
Bioassays on CL were conducted using a 128-well diet tray assay. One to five second instar CL larvae were placed in each well (3 mL) of the diet tray that had been previously filled with 1 mL of artificial diet to which 50 μg/cm^2 of the test molecule (dissolved in 50 μL of 90:10 acetone-water mixture) had been applied (to each of eight wells) and then allowed to dry. Trays were covered with a clear self-adhesive cover, vented to allow gas exchange, and held at 25° C., 14:10 light-dark for five to seven days. Percent mortality was recorded for the larvae in each well; activity in the eight wells was then averaged. The results are indicated in the table entitled “Table ABC: Biological Results” (See Table Section).

Consider `Cc1ccc(C(C)C)c(N2C(=O)CS/C2=N\C(=O)NCOc2ccc(-c3ncn(-c4ccc(OC(F)(F)F)cc4)n3)cc2)c1` [Compound F1, (Z)-1-(3-(2-isopropyl-5-methylphenyl)-4-oxothiazolidin-2-ylidene)-3-((4-(1-(4-(trifluoromethoxy)phenyl)-1H-1,2,4-triazol-3-yl)phenoxy)methyl)urea], for which the mortality at 50 µg/cm2 in assay [1] and in assay [2] was 50 to 100% in each case.
For the molecule `COc1ccc(CC(F)(F)F)c(N2C(=O)CS/C2=N\C(=O)NCOc2ccc(-c3ncn(-c4ccc(OC(F)(F)F)cc4)n3)cc2)c1` [Compound F2, (Z)-1-(3-(5-Methoxy-2-(2,2,2-trifluoroethyl)phenyl)-4-oxothiazolidin-2-ylidene)-3-((4-(1-(4-(trifluoromethoxy)phenyl)-1H-1,2,4-triazol-3-yl)phenoxy)methyl)urea], the mortality at 50 µg/cm2 in assay [1] and in assay [2] was 50 to 100% throughout.
On to `Cc1ccc(OCC(F)(F)F)c(N2C(=O)CS/C2=N\C(=O)NCOc2ccc(-c3ncn(-c4ccc(OC(F)(F)F)cc4)n3)cc2)c1` [Compound F23, (Z)-1-(3-(5-Methyl-2-(2,2,2-trifluoroethoxy)phenyl)-4-oxothiazolidin-2-ylidene)-3-((4-(1-(4-(trifluoromethoxy)phenyl)-1H-1,2,4-triazol-3-yl)phenoxy)methyl)urea], for which the mortality at 50 µg/cm2 in assay [1] and in assay [2] was 50 to 100% in each case.
Turning to `Cc1ccc(C(C)C)c(N2C(=O)CS/C2=N\C(=O)NC(C)Oc2ccc(-c3ncn(-c4ccc(OC(F)(F)F)cc4)n3)cc2)c1` (stereo not drawn) [Compound F24, (Z)-1-(3-(2-Isopropyl-5-methylphenyl)-4-oxothiazolidin-2-ylidene)-3-(1-(4-(1-(4-(trifluoromethoxy)phenyl)-1H-1,2,4-triazol-3-yl)phenoxy)ethyl)urea], the mortality at 50 µg/cm2 in assay [1] and in assay [2] was 50 to 100% each time.
With `CCOc1ccccc1N1C(=O)CS/C1=N\C(=O)NCOc1ccc(-c2ncn(-c3ccc(OC(F)(F)F)cc3)n2)cc1` [Compound F25, (Z)-1-(3-(2-Ethoxyphenyl)-4-oxothiazolidin-2-ylidene)-3-((4-(1-(4-(trifluoromethoxy)phenyl)-1H-1,2,4-triazol-3-yl)phenoxy)methyl)urea], the mortality at 50 µg/cm2 in assay [1] and in assay [2] was 50 to 100% in each case.
In the case of `COC(=O)c1ccc(N2C(=O)CS/C2=N\C(=O)NCOc2ccc(-c3ncn(-c4ccc(OC(F)(F)F)cc4)n3)cc2)c(C)c1` [Compound F26, Methyl (Z)-3-methyl-4-(4-oxo-2-((((4-(1-(4-(trifluoromethoxy)phenyl)-1H-1,2,4-triazol-3-yl)phenoxy)methyl)carbamoyl)imino)thiazolidin-3-yl)benzoate], the results for the mortality at 50 µg/cm2 in assay [1] and in assay [2] were 0% and 50 to 100%, respectively.
For `O=C(/N=C1\SCC(=O)N1c1cccc2c1CCCC2)NCOc1ccc(-c2ncn(-c3ccc(OC(F)(F)F)cc3)n2)cc1` [Compound F27, (Z)-1-(4-Oxo-3-(5,6,7,8-tetrahydronaphthalen-1-yl)thiazolidin-2-ylidene)-3-((4-(1-(4-(trifluoromethoxy)phenyl)-1H-1,2,4-triazol-3-yl)phenoxy)methyl)urea], in that order: 50 to 100% and 50 to 100%.
For `CCCCc1ccccc1N1C(=O)CS/C1=N\C(=O)NCOc1ccc(-c2ncn(-c3ccc(OC(F)(F)F)cc3)n2)cc1` [Compound F28, (Z)-1-(3-(2-Butylphenyl)-4-oxothiazolidin-2-ylidene)-3-((4-(1-(4-(trifluoromethoxy)phenyl)-1H-1,2,4-triazol-3-yl)phenoxy)methyl)urea], in that order: 0% and 0 to 50%.
For `Cc1ccc(F)c(N2C(=O)CS/C2=N\C(=O)NCOc2ccc(-c3ncn(-c4ccc(OC(F)(F)F)cc4)n3)cc2)c1` [Compound F29, (Z)-1-(3-(2-Fluoro-5-methylphenyl)-4-oxothiazolidin-2-ylidene)-3-((4-(1-(4-(trifluoromethoxy)phenyl)-1H-1,2,4-triazol-3-yl)phenoxy)methyl)urea], in that order: 50 to 100% and 50 to 100%.
For the molecule `CCc1cccc(C)c1N1C(=O)CS/C1=N\C(=O)NCOc1ccc(-c2ncn(-c3ccc(OC(F)(F)F)cc3)n2)cc1` [Compound F30, (Z)-1-(3-(2-Ethyl-6-methylphenyl)-4-oxothiazolidin-2-ylidene)-3-((4-(1-(4-(trifluoromethoxy)phenyl)-1H-1,2,4-triazol-3-yl)phenoxy)methyl)urea], the mortality at 50 µg/cm2 in assay [1] and in assay [2] was 50 to 100% each time.
Take `CSC(C)c1ccccc1N1C(=O)CS/C1=N\C(=O)NCOc1ccc(-c2ncn(-c3ccc(OC(F)(F)F)cc3)n2)cc1` (stereo not drawn) [Compound F31, (Z)-1-(3-(2-(1-(methylthio)ethyl)phenyl)-4-oxothiazolidin-2-ylidene)-3-((4-(1-(4-(trifluoromethoxy)phenyl)-1H-1,2,4-triazol-3-yl)phenoxy)methyl)urea]: the mortality at 50 µg/cm2 in assay [1] and in assay [2] was 50 to 100% throughout.
For `COc1ccc(N2C(=O)CS/C2=N\C(=O)NCOc2ccc(-c3ncn(-c4ccc(OC(F)(F)F)cc4)n3)cc2)c(C)c1` [Compound F32, (Z)-1-(3-(4-Methoxy-2-methylphenyl)-4-oxothiazolidin-2-ylidene)-3-((4-(1-(4-(trifluoromethoxy)phenyl)-1H-1,2,4-triazol-3-yl)phenoxy)methyl)urea], the mortality at 50 µg/cm2 in assay [1] and in assay [2] was 50 to 100% throughout.
